# Legend:
# A. fumigatus [1] = test: standard 4-day mouse model of A. fumigatus, kidney fungal burden; assay type: in vivo; details: oral administration at 20 mg/kg each of 4 days
# Procedure: For example, oral administration of Compound (−)-9 at 20 mg/kg each of 4 days reduced mouse kidney fungal burden 84% compared to control.
# C. albicans = test: Minimum Inhibitory Concentration (MIC), C. albicans, CLSI M27-A2; assay type: cell-based; details: Candida albicans MIC50; about 50% growth reduction; approximately 48 h at 35±1° C.
# Procedure: Compounds were assessed for their ability to inhibit the growth of common strains of fungus, C. albicans using a standardized procedure (CLSI M27-A2).
# Stock solutions of the test compounds and standards were prepared in DMSO at 1600 μg/mL (C. albicans). Eleven, serial, one-half dilutions of compounds were prepared in 96-well plates in RPMI+MOPS. The assay concentration ranges were 1-0.001 μg/mL (C. albicans). Cell suspensions of C. albicans were prepared and added to each well at concentrations of approximately 3.7×10^3 colony-forming-units per milliliter (cfu/mL). All testing was in duplicate. The inoculated plates were incubated for approximately 48 h at 35±1° C. At the completion of incubation the wells of each plate were evaluated visually for the presence of fungal growth.
# For voriconazole the M1C was the concentration which reduced C. albicans growth by 50% (per CLST, M27-A2). For QC purposes C. krusei isolate ATCC 6258 (4.0×10^3 cfu/mL) was included in the VOR assay.
# A. fumigatus [2] = test: A. fumigatus MIC, CLSI M38-A2; details: Aspergillus fumigatus, read-out: Aspergillus MIC
# Septoria tritici = test: standard Septoria tritici MIC assay (ATCC 26517, CLSI protocol); assay type: cell-based; details: Zymoseptoria tritici, ATCC26517, range stated for the three compounds together
# Septoria = test: protection from fungal growth in planta, Septoria; assay type: in vivo; details: applied at 50 ppm; Septoria pathogen
# Puccinia = test: protection from fungal growth in planta, Puccinia; assay type: in vivo; details: applied at 50 ppm; Puccinia pathogen
MIC (C. albicans),MIC (A. fumigatus [2]),MIC (Septoria tritici),SMILES,also measured
,,,"OC(c1ccc(C#Cc2ccc(C(F)(F)C(O)(Cn3cnnn3)c3ccc(F)cc3F)nc2)cc1)C(F)(F)F (stereo not drawn) [Compound (−)-9, 2-(2,4-difluorophenyl)-1,1-difluoro-3-(1H-tetrazol-1-yl)-1-(5-((4-(2,2,2-trifluoro-1-hydroxyethyl)phenyl)ethynyl)pyridin-2-yl)propan-2-ol]",reduced mouse kidney fungal burden compared to control (A. fumigatus [1]): 84%
0.016 µg/mL,8 µg/mL,,"OC(Cn1cnnn1)(c1ccc(F)cc1F)C(F)(F)c1ccc(C#Cc2ccc(C(F)(F)F)cc2)cn1 (racemic) [Example 5, 2-(2,4-Difluorophenyl)-1,1-difluoro-3-(1H-tetrazol-1-yl)-1-(5-((4-(trifluoromethyl)phenyl)ethynyl)pyridin-2-yl)propan-2-ol]",
,,0.25 to 1 µg/mL,"OC(Cn1cnnn1)(c1ccc(F)cc1F)C(F)(F)c1ccc(C#Cc2ccc(F)cc2)cn1 (racemic) [Example 3, 2-(2,4-Difluorophenyl)-1,1-difluoro-1-(5-((4-fluorophenyl)ethynyl)pyridin-2-yl)-3-(1H-tetrazol-1-yl)propan-2-ol]",
0.062 µg/mL,4 µg/mL,,"OC(Cn1cnnn1)(c1ccc(F)cc1F)C(F)(F)c1ccc(C#Cc2ccc(OCc3ccc(Cl)cc3F)cc2)cn1 (racemic) [Example 108, 1-(5-((4-(4-chloro-2-fluorobenzyloxy)phenyl)ethynyl)pyridin-2-yl)-2-(2,4-difluorophenyl)-1,1-difluoro-3-(1H-tetrazol-1-yl)propan-2-ol]",
≤ 0.001 µg/mL,0.5 µg/mL,,"OC(c1ccc(C#Cc2ccc(C(F)(F)C(O)(Cn3cnnn3)c3ccc(F)cc3F)nc2)cc1)C(F)(F)F (racemic) [Example 9, 2-(2,4-difluorophenyl)-1,1-difluoro-3-(1H-tetrazol-1-yl)-1-(5-((4-(2,2,2-trifluoro-1-hydroxyethyl)phenyl)ethynyl)pyridin-2-yl)propan-2-ol]",
0.25 µg/mL,2 µg/mL,,"OC(Cn1cnnn1)(c1ccc(F)cc1F)C(F)(F)c1ccc(C#Cc2ccc(OCc3ccc(OC(F)(F)F)cc3)cc2)cn1 (racemic) [Example 101, 2-(2,4-difluorophenyl)-1,1-difluoro-3-(1H-tetrazol-1-yl)-1-(5-((4-(4-(trifluoromethoxy)benzyloxy)phenyl)ethynyl)pyridin-2-yl)propan-2-ol]",
0.016 µg/mL,0.25 µg/mL,,"C[C@@H](c1ncncc1F)[C@](O)(Cn1cncn1)c1ccc(F)cc1F [Voriconazole, reference compound]",
,,0.25 to 1 µg/mL,"OC(Cn1cnnn1)(c1ccc(F)cc1F)C(F)(F)c1ccc(C#Cc2cccc(Cl)c2)cn1 (racemic) [Example 21, 1-(5-((3-chlorophenyl)ethynyl)pyridin-2-yl)-2-(2,4-difluorophenyl)-1,1-difluoro-3-(1H-tetrazol-1-yl)propan-2-ol]",

SMILES,MIC (C. albicans),MIC (A. fumigatus [2]),MIC (Septoria tritici),also measured
"OC(Cn1cnnn1)(c1ccc(F)cc1F)C(F)(F)c1ccc(C#Cc2ccc(Cl)cc2)cn1 (racemic) [Example 2, 1-(5-((4-Chlorophenyl)ethynyl)pyridin-2-yl)-2-(2,4-difluorophenyl)-1,1-difluoro-3-(1H-tetrazol-1-yl)propan-2-ol]",0.004 µg/mL,8 µg/mL,0.25 to 1 µg/mL,protection from fungal growth in planta (Septoria): provide protection from fungal growth; protection from fungal growth in planta (Puccinia): provide protection from fungal growth
